Results as given in PMC4105339 (Antiviral research, 2014).
Marks after values point to notes of the source that are not given here.

Legend:
[1] = target: B/Perth/211/01 D197E mutant neuraminidase; settings: cited from earlier work
[2] = test system: B/Perth/211/01 D197E mutant neuraminidase
[3] = test system: A/Fukui/45/04 H3N2 E119V mutant neuraminidase
[4] = test system: A/Mississippi/03/01 H1N1 H274Y mutant neuraminidase
H3N2 E119V neuraminidase = settings: cited from earlier work

Compound | IC50 [1] [nM] | Time (T½) for reaction rates to reach half the maximum rate of the uninhibited control [2] | Time (T½) for reaction rates to reach half the maximum rate of the uninhibited control [3] [min] | Time (T½) for reaction rates to reach half the maximum rate of the uninhibited control [4] [min] | changes in IC50 from 10 to 60 min in the preincubation reaction (H3N2 E119V neuraminidase) [fold]
CCC(CC)[C@H](NC(C)=O)[C@@H]1[C@H](O)[C@@H](C(=O)O)C[C@H]1N=C(N)N [Peramivir, peramivir] | 41.5 | 18.8 min | >240 | – | –
CC(=O)N[C@H]1[C@H]([C@H](O)[C@H](O)CO)OC(C(=O)O)=C[C@@H]1N=C(N)N [Zanamivir] | 258 | 17.0^* min | – | 43.2 | 1.9
